Test [1] in a line: Determination of peroxynitrite decomposition catalysis: rates of reaction between peroxynitrite and iron porphyrins in phosphate buffer. It is filed as biochemical. The settings on record: phosphate buffer pH=7.4. On the procedure:
To screen compounds for peroxynitrite decomposition catalytic activity of the invention, peroxynitrite is prepared and isolated as its sodium salt by the reaction of acidic hydrogen peroxide with sodium nitrite followed by rapid quenching with NaOH as set out by Halfpenny and Robinson, in J. Chem. Soc., 928-938 (1952). Peroxynitrite has an absorbance maximum at 302 nm with an extinction coefficient of 1670 M^−1 cm^−1. Therefore, it is possible to directly observe the decomposition of peroxynitrite by monitoring the change in absorbance at 302 nm by stop-flow spectrophotometric analysis. For example, the decomposition of peroxynitrite at an accelerated rate (relative to the natural decomposition rate of peroxynitrite) upon the addition of the decomposition catalysts of the invention.
A high rate of peroxynitrite decomposition is an important indicator of biological activity in vitro and in vivo. The rates of reaction between peroxynitrite and various iron porphyrins were measured at several different concentrations of catalyst in phosphate buffer (pH=7.4). The ONOO^− decay rate (M^−1s^−1) for FeTDMImP was determined to be […], and the keat, for FeTDCMImP was measured at 4.6×10^5. In the same studies the decay rates for the iron porphyrins FeTDMImP, FeTDCMImP, FeTDPImP (see, e.g., U.S. Pat. No. 6,448,239) were 1.1×10^6. 4.6×10^5 and 1.9×10^6, respectively.

Test [2] can be described thus: Stopped-flow spectrometry of peroxynitrite decomposition, absorption of peroxynitrite at 324 nm monitored. The settings on record: pH 7.4 phosphate buffer. The test is classed as biochemical. On the procedure: FIG. 4 is stopped-flow spectroscopy of peroxynitrite decomposition catalyzed by FeTDCImP (12). (A) diode array scan of 10 μM (12) in pH 7.4 PBS mixed with 600 μM, t=2 s; (B) decay of peroxynitrite monitored at 324 nm, condition that same as in A. It was fitted into a first order kinetics model using KinetAssyst software. Data was average of four parallel experiments.
It was rationalized that the electron-withdrawing cationic feature elevated its catalytic activity as compared to anionic porphyrins, while its electron-donating anionic feature lowered its catalytic activity as compared to cationic porphyrins.

For the compound “iron(III) meso-tetrakis(N,N-dicarboxymethyl)-imidazol-2-yl)porphyrin [FeTDCMImP]”, in test [1], the “decay rates for the iron porphyrins (in the same studies)” value was 4.6×10^5 and the keat is recorded as 4.6×10^5. Moreover, the “second order rate constant of peroxynitrite decomposition” value in test [2] was 430000 M⁻¹ s⁻¹.

Regarding `COCCOCCn1cc[n+](CCOCCOC)c1-c1c2nc(c(-c3n(CCOCCOC)cc[n+]3CCOCCOC)c3ccc([n-]3)c(-c3n(CCOCCOC)cc[n+]3CCOCCOC)c3nc(c(-c4n(CCOCCOC)cc[n+]4CCOCCOC)c4ccc1[n-]4)C=C3)C=C2.[Fe+3]` [FeTDPImP, iron(III) meso-tetrakis(N,N-di-(2-(2-methoxyethoxy)ethyl)-imidazol-2-yl)porphyrin], the “decay rates for the iron porphyrins (in the same studies)” value in test [1] is 1.9×10^6.
